Values quoted from earlier work in patent publication US6127342A, “Method for preventing or treating a lung disease caused by active oxygen and free radical injury” (Teijin Limited, priority 1991, dated 2000).

Tested on: glutathione peroxidase
Conditions: Flohe, et al.; cited from earlier work

## COC(=O)[C@H](CS)NC(=O)CC[C@H](N)C(=O)O
  efficiency as substrate of glutathione peroxidase compared with glutathione: 20-30%
